Assay results published in US20030203819A1, “Synergistically acting herbicidal mixtures” (priority 1998, published 2003).

Key:
Assay type in all cases: in vivo
Amaranthus retroflexus [1] = experiment: Herbicidal action in the greenhouse (post-emergence treatment)
From the text: (§1) The mixtures according to the invention were applied pre- or post-emergence (foliar treatment). The herbicidal compounds of component B were applied in the formulation in which they are present as commercially available product.
(§2) Some of the experiments were greenhouse experiments and some were field trials on mini plots (on a site with sandy loam (pH 6.2 to 7.0) or sandy clay (pH 5.0 to 6.7) as the soil).
(§3) The harmful plants differed with regard to size and developmental state; on average, they were 5 to 20 cm long, depending on the growth habit.
(§4) The herbicidally active compounds of components A) and B) were applied in succession or jointly, in the latter case in some cases as a tank mix and in some cases as a readymix, in the form of emulsions, aqueous solutions or suspensions, the vehicle being water ([…]). In the case of the field trials, application was effected with the aid of a mobile plot sprayer.
(§5) The test period extended over 3 to 8 weeks, and the stands were also observed at later points in time.
(§6) Damage by the herbicidal compositions was evaluated with reference to a scale of 0% to 100% in comparison with untreated control plots. 0 means no damage and 100 means complete destruction of the plants.
(§7) In these examples, the value E at which only an additive effect of the individual active ingredients is to be expected was calculated by the method of S. R. Colby (Calculating synergistic and antagonistic responses of herbicide combinations, Weeds 15, 20 pp (1967).

Ipomoea acuminata = experiment: Herbicidal action in the field (post-emergence treatment)
From the text: as §1, §2, §3, §4, §5, §6, §7

Galium aparine = experiment: as above
From the text: as §1, §2, §3, §4, §5, §6, §7

Brachiaria plantaginea = experiment: as above; settings: pendimethalin 990 g/ha a.s.
From the text: as §1, §2, §3, §4, §5, §6, §7

Abutilon theophrasti [2] = experiment: Herbicidal action in the greenhouse (post-emergence treatment)
From the text: as §1, §2, §3, §4, §5, §6, §7

Phalaris spec. = experiment: Herbicidal action in the field (post-emergence treatment); settings: 2,4-D 500 g/ha a.s.
From the text: as §1, §2, §3, §4, §5, §6, §7

Alopecurus myosuroides [3] = experiment: as above; settings: fenoxaprop-ethyl 83 g/ha a.s.
From the text: as §1, §2, §3, §4, §5, §6, §7

Richardia brasiliensis = experiment: as above; settings: Bentazone 1440 g/ha a.s.
From the text: as §1, §2, §3, §4, §5, §6, §7

Setaria faberi [4] = experiment: as above
From the text: as §1, §2, §3, §4, §5, §6, §7

Chenopodium album = experiment: as above; settings: Cycloxydim 100 g/ha a.s.
From the text: as §1, §2, §3, §4, §5, §6, §7

Digitaria sanguinalis [5] = experiment: as above; settings: Cycloxydim 100 g/ha a.s.
From the text: as §1, §2, §3, §4, §5, §6, §7

Abutilon theophrasti [6] = experiment: as above
From the text: as §1, §2, §3, §4, §5, §6, §7

Sorghum bicolor = experiment: as above; settings: atrazine 840 g/ha a.s.
From the text: as §1, §2, §3, §4, §5, §6, §7

Cyperus species = experiment: as above
From the text: as §1, §2, §3, §4, §5, §6, §7

Alopecurus myosuroides [7] = experiment: Herbicidal action in the greenhouse (post-emergence treatment)
From the text: as §1, §2, §3, §4, §5, §6, §7

Ipomoea ssp. = experiment: as above
From the text: as §1, §2, §3, §4, §5, §6, §7

Setaria viridis [8] = experiment: as above; settings: isoxaflutole 31.2 g/ha a.s.
From the text: as §1, §2, §3, §4, §5, §6, §7

[9] = system: Ipomoea purpurea var. diversifolia; experiment: Herbicidal action in the field (post-emergence treatment)
From the text: as §1, §2, §3, §4, §5, §6, §7

Stellaria media = experiment: as above
From the text: as §1, §2, §3, §4, §5, §6, §7

Ipomoea lacunosa = experiment: as above; settings: nicosulfuron 35 g/ha a.s.
From the text: as §1, §2, §3, §4, §5, §6, §7

Setaria viridis [10] = experiment: as above; settings: Sethoxydim 160 g/ha a.s.
From the text: as §1, §2, §3, §4, §5, §6, §7

Digitaria adscendens = experiment: as above
From the text: as §1, §2, §3, §4, §5, §6, §7

Bidens pilosa = experiment: as above
From the text: as §1, §2, §3, §4, §5, §6, §7

Cyperus iria = experiment: Herbicidal action in the greenhouse (pre-emergence treatment); settings: Dimethenamid 62.5 g/ha a.s.
From the text: as §1, §2, §3, §4, §5, §6, §7

Digitaria sanguinalis [11] = experiment: as above; settings: Dimethenamid 125 g/ha a.s.
From the text: as §1, §2, §3, §4, §5, §6, §7

Amaranthus retroflexus [12] = experiment: as above; settings: Dimethenamid 125 g/ha a.s.
From the text: as §1, §2, §3, §4, §5, §6, §7

Veronica ssp. = experiment: Herbicidal action in the greenhouse (post-emergence treatment)
From the text: as §1, §2, §3, §4, §5, §6, §7

Sorghum halepense = experiment: Herbicidal action in the field (post-emergence treatment)
From the text: as §1, §2, §3, §4, §5, §6, §7

Panicum miliaceum = experiment: as above; settings: dimethenamid 841 g/ha a.s.
From the text: as §1, §2, §3, §4, §5, §6, §7

Setaria faberi [13] = experiment: Herbicidal action in the greenhouse (post-emergence treatment); settings: glufosinate-ammonium 31.2 g/ha a.s.
From the text: as §1, §2, §3, §4, §5, §6, §7

Echinochloa crus-galli = experiment: as above
From the text: as §1, §2, §3, §4, §5, §6, §7

Geranium carolinianum = experiment: Herbicidal action in the field (post-emergence treatment); settings: glyphosate 840 g/ha a.s.
From the text: as §1, §2, §3, §4, §5, §6, §7

Anthemis mixta = experiment: as above; settings: carfentrazone-ethyl 30 g/ha a.s.
From the text: as §1, §2, §3, §4, §5, §6, §7

[14] = glufosinate-ammonium 400 g/ha a.s.

CS(=O)(=O)c1ccc(C(=O)C2C(=O)CCCC2=O)c(Cl)c1 [sulcotrione, reference compound]
pest or weed control at 250 g/ha (Amaranthus retroflexus [1]; Amaranthus retroflexus, post-emergence, read-out: Damage, sulcotrione 250 g/ha a.s.): 45%
Damage (Ipomoea acuminata; sulcotrione 300 g/ha a.s.): 86%

O=C(O)c1cc(Oc2ccc(C(F)(F)F)cc2Cl)ccc1[N+](=O)[O-] [acifluorfen, reference compound]
Damage (Galium aparine; acifluorfen 100 g/ha a.s.): 48%

CCC(CC)Nc1c([N+](=O)[O-])cc(C)c(C)c1[N+](=O)[O-] [pendimethalin, reference compound]
Damage (Brachiaria plantaginea): 0%

O=C(O)COc1ccc(Cl)cc1Cl [2,4-D, reference compound]
Damage (Abutilon theophrasti [2]; 2,4-D 62.5 g/ha a.s.): 40%
Damage (Amaranthus retroflexus [1]; 2,4-D 62.5 g/ha a.s.): 20%
Damage (Phalaris spec.): 20%

CCOC(=O)C(C)Oc1ccc(Oc2nc3ccc(Cl)cc3o2)cc1 (stereo not drawn) [fenoxaprop-ethyl, reference compound]
pest or weed control at 31.2 g/ha (Amaranthus retroflexus [1]; Amaranthus retroflexus, post-emergence, fenoxaprop-ethyl (title: fenoxaprop-P-ethyl) 31.2 g/ha a.s., read-out: Damage): 0%
Damage (Galium aparine; fenoxaprop-ethyl 83 g/ha a.s.): 0%
Damage (Alopecurus myosuroides [3]): 82%

CC(C)N1C(=O)c2ccccc2NS1(=O)=O [Bentazone, bentazone, reference compound]
Damage (Richardia brasiliensis): 77%

COc1nc(NC(=O)NS(=O)(=O)c2ccccc2C(F)(F)F)nc(C(F)(F)F)n1 [N-[[[4-methoxy-6-(trifluoromethyl)-1,3,5-triazin-2-yl]amino]carbonyl]-2-(trifluoromethyl)benzenesulfonamide, reference compound]
Damage (Setaria faberi [4]; the benzenesulfonamide (B2) 50 g/ha a.s.): 0%

CCCC(=NOCC)C1=C(O)CC(C2CCCSC2)CC1=O (stereo not drawn) [Cycloxydim, cycloxydim, reference compound]
Damage (Chenopodium album): 0%
Damage (Digitaria sanguinalis [5]): 81%

N#Cc1cc(Br)c(O)c(Br)c1 [bromoxynil, reference compound]
Damage (Galium aparine; bromoxynil 470 g/ha a.s.): 84%

CCNc1nc(Cl)nc(NC(C)C)n1 [atrazine, reference compound]
Damage (Abutilon theophrasti [6]; atrazine 1120 g/ha a.s.): 32%
Damage (Setaria faberi [4]; atrazine 1120 g/ha a.s.): 20%
Damage (Sorghum bicolor): 27%

Cc1cc(Cl)ccc1OCC(=O)O [MCPA, reference compound]
Damage (Cyperus species; MCPA 600 g/ha a.s.): 5%

COC(=O)c1c(Cl)nn(C)c1S(=O)(=O)NC(=O)Nc1nc(OC)cc(OC)n1 [halosulfuron-methyl, reference compound]
Damage (Alopecurus myosuroides [7]; halosulfuron-methyl 31.2 g/ha a.s.): 45%
pest or weed control at 7.8 g/ha (Amaranthus retroflexus [1]; Amaranthus retroflexus, post-emergence, read-out: Damage, halosulfuron-methyl 7.8 g/ha a.s.): 80%

CS(=O)(=O)c1cc(C(F)(F)F)ccc1C(=O)c1cnoc1C1CC1 [isoxaflutole, reference compound]
Damage (Ipomoea ssp.; isoxaflutole 62.5 g/ha a.s.): 55%
Damage (Setaria viridis [8]): 30%

CCc1cnc(C2=NC(C)(C(C)C)C(=O)N2)c(C(=O)O)c1 (stereo not drawn) [imazethapyr, reference compound]
Damage (Ipomoea acuminata; imazethapyr 70 g/ha a.s.): 33%
Damage ([9]; imazethapyr 70 g/ha a.s.): 58%

imazamethabenz [reference compound]
Damage (Stellaria media; imazamethabenz 525 g/ha a.s.): 0%

COc1cc(OC)nc(NC(=O)NS(=O)(=O)c2ncccc2C(=O)N(C)C)n1 [nicosulfuron, reference compound]
pest or weed control at 1.9 g/ha (Amaranthus retroflexus [1]; Amaranthus retroflexus, post-emergence, nicosulfuron 1.9 g/ha a.s., read-out: Damage): 65%
Damage (Ipomoea lacunosa): 39%

CN(C)C(=O)Nc1ccc(Cl)c(Cl)c1 [diuron, reference compound]
Damage (Alopecurus myosuroides [7]; diuron 250 g/ha a.s.): 80%

CCC/C(=N\OCC)C1=C(O)CC(CC(C)SCC)CC1=O (stereo not drawn) [Sethoxydim, sethoxydim, reference compound]
Damage (Abutilon theophrasti [6]; Sethoxydim 160 g/ha a.s.): 0%
Damage (Setaria viridis [10]): 93%

CC(C)N(C(=O)COc1nnc(C(F)(F)F)s1)c1ccc(F)cc1 [flufenacet, reference compound]
Damage (Digitaria adscendens; flufenacet 600 g/ha a.s.): 58%

CC(C)C1(C)N=C(c2nc3ccccc3cc2C(=O)O)NC1=O (stereo not drawn) [imazaquin, reference compound]
Damage (Bidens pilosa; imazaquin 150 g/ha a.s.): 45%

COCC(C)N(C(=O)CCl)c1c(C)csc1C (stereo not drawn) [Dimethenamid, dimethenamid, reference compound]
Damage (Cyperus iria): 95%
Damage (Digitaria sanguinalis [11]): 80%
Damage (Amaranthus retroflexus [12]): 80%
Damage (Veronica ssp.; Dimethenamid 500 g/ha a.s. (Table 43)): 70%
Damage (Veronica ssp.; Dimethenamid 500 g/ha a.s. (Table 45)): 70%
pest or weed control at 500 g/ha (Amaranthus retroflexus [1]; Amaranthus retroflexus, post-emergence, Dimethenamnid 500 g/ha a.s., read-out: Damage): 10%
Damage (Sorghum halepense; dimethenamid 1120 g/ha a.s.): 7%
Damage (Panicum miliaceum): 23%

CP(=O)(O)CCC(N)C(=O)O (stereo not drawn) [glufosinate-ammonium, reference compound]
Damage (Setaria faberi [13]): 65%
Damage (Echinochloa crus-galli; glufosinate-ammonium 15.6 g/ha a.s.): 0%
Damage (Ipomoea acuminata; [14]): 75%
Damage (Digitaria adscendens; [14]): 75%

CCOCN(C(=O)CCl)c1c(C)cccc1CC [acetochlor, reference compound]
Damage (Abutilon theophrasti [2]; acetochlor 31.2 g/ha a.s.): 0%

CC(C)C1(C)N=C(c2ncccc2C(=O)O)NC1=O (stereo not drawn) [imazapyr, reference compound]
Damage (Ipomoea ssp.; imazapyr 62.5 g/ha a.s.): 85%
Damage (Alopecurus myosuroides [7]; imazapyr 250 g/ha a.s.): 90%

O=C(O)CNCP(=O)(O)O [glyphosate, reference compound]
Damage (Geranium carolinianum): 97%
Damage (Sorghum halepense; glyphosate 840 g/ha a.s.): 74%

CCCCCCCCSC(=O)Oc1cc(Cl)nnc1-c1ccccc1 [pyridate, reference compound]
Damage (Setaria faberi [4]; pyridate 450 g/ha a.s.): 0%
Damage (Bidens pilosa; pyridate 450 g/ha a.s.): 25%

Nc1cnn(-c2ccccc2)c(=O)c1Cl [chloridazon, reference compound]
Damage ([9]; chloridazon 1720 g/ha a.s.): 40%

COc1cc(OC)nc(Sc2cccc(Cl)c2C(=O)O)n1 [pyrithiobac-sodium, reference compound]
Damage (Echinochloa crus-galli; pyrithiobac-sodium 7.8 g/ha a.s.): 10%

CCOC(=O)C(Cl)Cc1cc(-n2nc(C)n(C(F)F)c2=O)c(F)cc1Cl (stereo not drawn) [carfentrazone-ethyl, reference compound]
pest or weed control at 0.9 g/ha (Amaranthus retroflexus [1]; Amaranthus retroflexus, post-emergence, read-out: Damage, carfentrazone-ethyl 0.9 g/ha a.s.): 60%
Damage (Anthemis mixta): 0%

O=C(O)c1c(Cl)ccc2cc(Cl)cnc12 [Quinclorac, quinclorac, reference compound]
Damage (Ipomoea ssp.; Quinclorac 250 g/ha a.s.): 70%
Damage (Veronica ssp.; Quinclorac 500 g/ha a.s.): 80%

CC(C)c1ccc(NC(=O)N(C)C)cc1 [isoproturon, reference compound]
Damage (Stellaria media; isoproturon 1000 g/ha a.s.): 94%

COc1cc(OC)n2nc(S(=O)(=O)Nc3c(Cl)ccc(C)c3Cl)nc2n1 [metosulam, reference compound]
Damage (Veronica ssp.; metosulam 1.9 g/ha a.s.): 40%

CSc1nnc(C(C)(C)C)c(=O)n1N [metribuzin, reference compound]
Damage (Cyperus species; metribuzin 200 g/ha a.s.): 50%
Damage (Bidens pilosa; metribuzin 200 g/ha a.s.): 38%

CCOC(=O)/C(Cl)=C/c1cc(N2C(=O)C3=C(CCCC3)C2=O)ccc1Cl [cinidon-ethyl, reference compound]
Damage (Galium aparine; cinidon-ethyl 7.8 g/ha a.s.): 90%
